BigSolDB 2.1

Nc1ccc(Cl)cc1[N+](=O)[O-]
solubility (mole fraction)
Settings	278.15 K	283.15 K	288.15 K	293.15 K	298.15 K	303.15 K	308.15 K	313.15 K	318.15 K	323.15 K
in 1,4-dioxane	–	–	0.0282	0.0337	0.0405	0.0509	0.065	0.0828	0.105	0.133
in NMP	0.0539	0.0605	0.0737	0.0887	0.106	0.125	0.142	0.167	0.187	0.223
in acetonitrile	0.0327	0.0373	0.0442	0.053	0.0625	0.075	0.09	0.105	0.124	0.145
in cyclohexane	0.000163	0.000195	0.000267	0.000354	0.000468	0.000613	0.000773	0.000983	0.00124	0.0016
in ethanol	0.013	0.0144	0.0168	0.0194	0.0232	0.0277	0.0323	0.0371	0.043	0.0493
in ethyl acetate	0.0193	0.0244	0.032	0.0418	0.0535	0.0684	0.0883	0.113	0.143	0.177
in ethylene glycol	0.00179	0.00229	0.00281	0.00363	0.00453	0.00573	0.00737	0.00926	0.0118	0.0158
in isopropanol	0.0111	0.0123	0.0145	0.0175	0.0208	0.0252	0.0296	0.0352	0.0406	0.0463
in methanol	0.0158	0.017	0.0199	0.0239	0.0287	0.034	0.0403	0.0479	0.056	0.0667
in n-butanol	0.00963	0.0107	0.0124	0.0146	0.0177	0.0215	0.0257	0.0301	0.0357	0.0427
in n-propanol	0.0119	0.013	0.0152	0.018	0.0217	0.0259	0.0308	0.0362	0.042	0.0481
in water	8e-06	1e-05	1.4e-05	1.9e-05	2.5e-05	3.3e-05	4.3e-05	5.5e-05	7e-05	8.6e-05
